Earlier results on three compounds are cited in article PMC10537368, “Design, Synthesis, and Biological Evaluation of Novel 3-Cyanopyridone/Pyrazoline Hybrids as Potential Apoptotic Antiproliferative Agents Targeting EGFR/BRAF^V600E Inhibitory Pathways” (Molecules, 2023).

The structures appear in SMILES notation. Like-named read-outs stand apart in the source and are kept apart here.

The target in one data set is BRAF^V600E (Homo sapiens, UniProt P15056, V600E). The conditions noted are these: cited from earlier work.
The subject of the next data set is A-549 cancer. Also on record: method as in PMID 37240450. The conditions noted are these: read-out: IC50 against A-549 cancer; cited from earlier work.
The test system of another data set is Panc-1 cancer. Also on record: method as in PMID 36526595. The settings on record: read-out: IC50 against Panc-1 cancer; cited from earlier work.
A further data set concerns the target EGFR (Homo sapiens, UniProt P00533). The settings on record: read-out: EGFR inhibition IC50; cited from earlier work.

Chain of BRAF^V600E (P15056 whole entry V600E): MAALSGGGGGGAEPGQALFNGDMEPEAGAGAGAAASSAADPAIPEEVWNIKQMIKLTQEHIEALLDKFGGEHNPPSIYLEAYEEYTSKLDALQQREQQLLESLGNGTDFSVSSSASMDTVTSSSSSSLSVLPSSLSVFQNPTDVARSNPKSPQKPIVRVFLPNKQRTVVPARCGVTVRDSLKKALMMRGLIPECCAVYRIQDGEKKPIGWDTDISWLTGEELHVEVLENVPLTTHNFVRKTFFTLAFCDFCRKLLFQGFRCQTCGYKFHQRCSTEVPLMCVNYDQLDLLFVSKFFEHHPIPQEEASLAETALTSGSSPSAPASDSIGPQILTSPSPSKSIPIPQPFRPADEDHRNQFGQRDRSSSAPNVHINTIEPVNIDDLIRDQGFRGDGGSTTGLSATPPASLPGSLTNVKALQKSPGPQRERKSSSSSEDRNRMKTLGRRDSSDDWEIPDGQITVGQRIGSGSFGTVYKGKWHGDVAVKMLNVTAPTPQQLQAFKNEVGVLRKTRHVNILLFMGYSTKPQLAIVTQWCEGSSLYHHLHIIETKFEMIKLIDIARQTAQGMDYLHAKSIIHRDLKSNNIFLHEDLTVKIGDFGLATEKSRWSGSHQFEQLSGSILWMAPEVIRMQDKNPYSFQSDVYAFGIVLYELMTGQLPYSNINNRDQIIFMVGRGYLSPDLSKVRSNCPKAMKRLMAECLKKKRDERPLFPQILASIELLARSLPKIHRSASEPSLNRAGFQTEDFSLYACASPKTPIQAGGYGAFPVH
Chain of EGFR (P00533 25-1210): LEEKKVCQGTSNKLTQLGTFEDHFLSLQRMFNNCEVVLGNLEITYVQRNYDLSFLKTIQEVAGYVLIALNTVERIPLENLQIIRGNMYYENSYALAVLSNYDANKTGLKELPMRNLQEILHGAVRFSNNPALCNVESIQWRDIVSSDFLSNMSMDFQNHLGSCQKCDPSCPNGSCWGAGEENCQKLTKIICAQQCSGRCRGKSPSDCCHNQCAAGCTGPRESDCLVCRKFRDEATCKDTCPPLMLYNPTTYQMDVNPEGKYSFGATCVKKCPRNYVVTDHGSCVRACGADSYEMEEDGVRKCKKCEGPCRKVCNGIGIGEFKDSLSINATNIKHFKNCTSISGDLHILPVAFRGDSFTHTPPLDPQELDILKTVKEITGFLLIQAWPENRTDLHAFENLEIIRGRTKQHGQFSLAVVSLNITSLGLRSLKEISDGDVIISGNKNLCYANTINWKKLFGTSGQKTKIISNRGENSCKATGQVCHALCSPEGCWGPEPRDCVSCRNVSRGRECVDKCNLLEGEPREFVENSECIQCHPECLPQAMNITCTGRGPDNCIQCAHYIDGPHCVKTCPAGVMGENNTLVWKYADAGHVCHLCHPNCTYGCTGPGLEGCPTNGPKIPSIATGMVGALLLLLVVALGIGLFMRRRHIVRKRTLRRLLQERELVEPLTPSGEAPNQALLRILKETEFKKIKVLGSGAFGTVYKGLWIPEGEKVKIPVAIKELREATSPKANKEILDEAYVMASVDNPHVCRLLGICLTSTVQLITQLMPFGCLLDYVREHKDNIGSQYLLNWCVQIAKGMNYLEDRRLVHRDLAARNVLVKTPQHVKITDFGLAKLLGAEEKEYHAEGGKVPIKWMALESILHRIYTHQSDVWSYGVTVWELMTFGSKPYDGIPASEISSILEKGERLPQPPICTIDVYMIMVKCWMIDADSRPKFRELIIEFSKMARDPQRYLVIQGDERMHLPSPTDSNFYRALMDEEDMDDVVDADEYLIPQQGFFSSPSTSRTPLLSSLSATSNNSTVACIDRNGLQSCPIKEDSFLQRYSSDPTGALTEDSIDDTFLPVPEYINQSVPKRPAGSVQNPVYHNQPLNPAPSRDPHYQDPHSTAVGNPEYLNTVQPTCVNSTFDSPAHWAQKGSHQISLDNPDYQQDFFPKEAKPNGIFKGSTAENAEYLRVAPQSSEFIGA

Regarding `COc1ccc(C2CC(c3ccc(OCC(=O)Nc4ccc(C5=NNC(c6ccc(OC)c(OC)c6)C5)cc4)cc3)=NN2)cc1` (stereo not shown) [Compound II], the IC50 is 93 nM at BRAF^V600E (read-out: BRAF^V600E IC50) and 1000 nM in the data set on A-549 cancer.
Consider `COc1ccc(/C=C/C(=O)c2ccc(NC(=O)Cn3c(-c4ccc(OC)c(OC)c4)cc(-c4ccc(OC)c(OC)c4)c(C#N)c3=O)cc2)cc1OC` [Compound I], for which the IC50 with Panc-1 cancer is 800 nM; at EGFR it was 89 nM; on BRAF^V600E (read-out: BRAF^V600E inhibition IC50), 65 nM.
In the case of `COc1cccc2c1C(=O)c1c(O)c3c(c(O)c1C2=O)C[C@@](O)(C(=O)CO)C[C@@H]3O[C@H]1C[C@H](N)[C@H](O)[C@H](C)O1` [doxorubicin], the IC50 in the data set on Panc-1 cancer is 1000 nM; in the data set with A-549 cancer it was 1400 nM.
